Assay results as given in US20260225997A1, “IONIZABLE AMINE LIPIDS” (Intellia Therapeutics, Inc., priority 2018, published 2026).

Assays:
[1] = pKa measurement of unformulated amine lipid (fluorescence, method of Jayaraman et al.); format: physicochemical; conditions: 100 μM in 0.1 M phosphate buffer pH 4.5-9.0
Protocol: The pKa of each amine lipid was determined according to the method in Jayaraman, et al. (Angewandte Chemie, 2012) with the following adaptations. […] Lipid was diluted to 100 μM in 0.1 M phosphate buffer (Boston Bioproducts) where the pH ranged from 4.5-9.0. Fluorescence intensity was measured using excitation and emission wavelengths of 321 nm and 448 nm.

[2] = LNP average particle size and polydispersity by dynamic light scattering (Malvern Zetasizer); format: physicochemical; conditions: Table 3, Example 52: LNP, Cas9 mRNA + sgRNA (G650) 1:1 w/w, N:P 6.0
Source text: The LNPs have a size of about 1 to about 1,000 nm, about 10 to about 500 nm, about 20 to about 500 nm, in a sub-embodiment about 50 to about 400 nm, in a sub-embodiment about 50 to about 300 nm, in a sub-embodiment about 50 to about 200 nm, and in a sub-embodiment about 50 to about 150 nm, and in another sub-embodiment about 60 to about 120 nm. Preferably, the LNPs have a size from about 60 nm to about 100 nm. The average sizes (diameters) of the fully formed LNP, may be measured by dynamic light scattering on a Malvern Zetasizer. The LNP sample is diluted in phosphate buffered saline (PBS) so that the count rate is approximately 200-400 kcps. The data is presented as a weighted average of the intensity measure.
The LNPs disclosed herein have a size (e.g. Z-average diameter) of about 1 to about 250 nm. In some embodiments, the LNPs have a size of about 10 to about 200 nm. In further embodiments, the LNPs have a size of about 20 to about 150 nm. In some embodiments, the LNPs have a size of about 50 to about 150 nm. In some embodiments, the LNPs have a size of about 50 to about 100 nm. In some embodiments, the LNPs have a size of about 50 to about 120 nm. In some embodiments, the LNPs have a size of about 60 to about 100 nm. In some embodiments, the LNPs have a size of about 75 to about 150 nm. In some embodiments, the LNPs have a size of about 75 to about 120 nm. In some embodiments, the LNPs have a size of about 75 to about 100 nm. Unless indicated otherwise, all sizes referred to herein are the average sizes (diameters) of the fully formed nanoparticles, as measured by dynamic light scattering on a Malvern Zetasizer. The nanoparticle sample is diluted in phosphate buffered saline (PBS) so that the count rate is approximately 200-400 kcps. The data is presented as a weighted-average of the intensity measure (Z-average diameter).
Dynamic Light Scattering (“DLS”) is used to characterize the polydispersity index (“pdi”) and size of the LNPs of the present disclosure. DLS measures the scattering of light that results from subjecting a sample to a light source. PDI, as determined from DLS measurements, represents the distribution of particle size (around the mean particle size) in a population, with a perfectly uniform population having a PDI of zero.
LNP compositions are analyzed for average particle size, polydispersity index (pdi), total RNA content, encapsulation efficiency of RNA, and zeta potential. LNP compositions may be further characterized by lipid analysis, AF4-MALS, NTA, and/or cryo-EM. Average particle size and polydispersity are measured by dynamic light scattering (DLS) using a Malvern Zetasizer DLS instrument. LNP samples were diluted with PBS buffer prior to being measured by DLS. Z-average diameter which is an intensity-based measurement of average particle size was reported along with number average diameter and pdi. A Malvern Zetasizer instrument is also used to measure the zeta potential of the LNP. Samples are diluted 1:17 (50 μL into 800 μL) in 0.1×PBS, pH 7.4 prior to measurement.

[3] = RNA encapsulation efficiency of LNP (Ribogreen fluorescence assay); format: physicochemical; conditions: Table 3, Example 52: LNP, Cas9 mRNA + sgRNA (G650) 1:1 w/w, N:P 6.0; Compound 19 50/9/38/3, others 50/10/38.5/1.5
Protocol: A fluorescence-based assay (Ribogreen®, ThermoFisher Scientific) is used to determine total RNA concentration and free RNA. Encapsulation efficiency is calculated as (Total RNA−Free RNA)/Total RNA. LNP samples are diluted appropriately with 1× TE buffer containing 0.2% Triton-X 100 to determine total RNA or 1× TE buffer to determine free RNA. Standard curves are prepared by utilizing the starting RNA solution used to make the compositions and diluted in 1× TE buffer+/−0.2% Triton-X 100. Diluted RiboGreen® dye (according to the manufacturer's instructions) is then added to each of the standards and samples and allowed to incubate for approximately 10 minutes at room temperature, in the absence of light. A SpectraMax M5 Microplate Reader (Molecular Devices) is used to read the samples with excitation, auto cutoff and emission wavelengths set to 488 nm, 515 nm, and 525 nm respectively. Total RNA and free RNA are determined from the appropriate standard curves.
Encapsulation efficiency is calculated as (Total RNA−Free RNA)/Total RNA. The same procedure may be used for determining the encapsulation efficiency of a DNA-based cargo component. For single-strand DNA Oligreen Dye may be used, and for double-strand DNA, Picogreen Dye.

B2M = B2M editing in mouse liver by NGS after i.v. LNP delivery of Cas9 mRNA and sgRNA; format: in vivo; conditions: CD-1 female mice; for Editing (%) of B2M in mouse liver: Example 52: LNP single dose 0.1 mg/kg i.v., sgRNA G650:Cas9 mRNA 1:1, NGS; for % Editing B2M in mouse liver: 7 days post-dose, G650 1:1
Protocol: Preparations of various LNP compositions were prepared with amine lipids. In assays for percent liver editing in mice, Cas9 mRNA and chemically modified sgRNA were formulated in LNPs, at either a 1:1 w/w ratio or a 1:2 w/w ratio. LNPs are formulated with a composition of a given ionizable lipid (e.g. an amine lipid), DSPC, cholesterol, and PEG-2k-DMG, with a 6.0 N:P ratio.
LNPs were administered to mice by a single dose at 0.1 mg/kg, unless otherwise noted and genomic DNA was isolated for NGS analysis as described below.
CD-1 female mice, ranging from 6-10 weeks of age were used in each study. Animals were weighed and grouped according to body weight for preparing dosing solutions based on group average weight. LNPs were dosed via the lateral tail vein in a volume of 0.2 mL per animal (approximately 10 mL per kilogram body weight). The animals were periodically observed post dose for adverse effects for at least 24 hours post dose. Animals were euthanized at 6 or 7 days by exsanguination via cardiac puncture under isoflurane anesthesia. Blood was collected into serum separator tubes or into tubes containing buffered sodium citrate for plasma as described herein. For studies involving in vivo editing, liver tissue was collected from each animal for DNA extraction and analysis.
Cohorts of mice were measured for liver editing by Next-Generation Sequencing (NGS).
In brief, to quantitatively determine the efficiency of editing at the target location in the genome, genomic DNA was isolated and deep sequencing was utilized to identify the presence of insertions and deletions introduced by gene editing.
PCR primers were designed around the target site (e.g., B2M), and the genomic area of interest was amplified. Additional PCR was performed according to the manufacturer's protocols (Illumina) to add the necessary chemistry for sequencing. The amplicons were sequenced on an Illumina MiSeq instrument. The reads were aligned to the […] after eliminating those having low quality scores. The resulting files containing the reads were mapped to the reference genome (BAM files), where reads that overlapped the target region of interest were selected and the number of wild type reads versus the number of reads which contain an insertion, substitution, or deletion was calculated.
The editing percentage (e.g., the “editing efficiency” or “percent editing”) is defined as the total number of sequence reads with insertions or deletions over the total number of sequence reads, including wild type.
CD-1 female mice were dosed i.v. at 0.1 mpk or 0.3 mpk. […] For animals dosed with G282 targeting TTR, blood and the liver were collected and serum TTR and editing were measured. For animals dosed with G650 targeting B2M, liver was collected and editing was measured.

TTR [4] = assay: TTR editing in mouse liver by NGS after i.v. LNP delivery of Cas9 mRNA and sgRNA; format: in vivo; conditions: CD-1 female mice, 7 days post-dose
In short: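 Cas9 mRNA and chemically modified sgRNA were co-formulated in LNPs made of an ionizable amine lipid, DSPC, cholesterol and PEG-2k-DMG at a 6.0 N:P ratio. CD-1 female mice aged 6-10 weeks received tail-vein injections of 0.2 mL. Liver genomic DNA was then amplified around the target site and sequenced on an Illumina MiSeq, with editing calculated as indel-containing reads over total reads.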

TTR [5] = assay: Transthyretin (TTR) ELISA analysis of mouse serum after LNP dosing; format: in vivo; conditions: 7 days post-dose
In short: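 Female CD-1 mice aged 6-10 weeks were grouped by body weight and given LNPs by lateral tail vein injection (0.2 mL per animal, about 10 mL per kilogram). Mice were bled by cardiac puncture under isoflurane into serum separator tubes. Serum was diluted 10,000-fold for the 0.1 mpk dose, and total TTR was quantified with a Mouse Prealbumin (Transthyretin) ELISA Kit following the kit directions.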

[6] = Example 61: 0.1 mpk i.v., G282 1:1

CCCCCCCCCCOC(CCCCCCCN(CCO)CCCCCCCC(=O)OCCCCCCCCC)OCCCCCCCCCC [Compound 3, nonyl 8-[8,8-didecoxyoctyl(2-hydroxyethyl)amino]octanoate]
pKa [1]: 6.19
Num Ave Size (nm) [2]: 57.41 nm
PDI [2]: 0.056
Z-Ave Size (nm) [2]: 75.79 nm
Encapsulation (%) [3]: 98%
Editing (%) of B2M in mouse liver (B2M): 8.8%

CCCCCCCCCOC(=O)CCCCCCCN(CCO)CCCCCCCCCC(OCCCCCCCC)OCCCCCCCC [Compound 5]
pKa [1]: 7.08
Editing (%) of B2M in mouse liver (B2M): 13.2%
Editing % (TTR [4]; Example 56: 0.1 mpk i.v., G282): 9%
Serum TTR (TTR [5]; Example 56: 0.1 mpk i.v., G282): 738 µg/mL
Serum TTR (% TSS) (TTR [5]; Example 56: 0.1 mpk i.v., G282): 92 % TSS

CCCCCCCCCOC(=O)CCCCCCCN(CCO)CCCCCCCCCC(OCCCCCCCCC)OCCCCCCCCC [Compound 6, 8-[10,10-di(nonoxy)decyl-(2-hydroxyethyl)amino]octanoate]
pKa [1]: 6.3
Editing (%) of B2M in mouse liver (B2M): 8.2%

CCCCCCCCCOC(=O)CCCCCCCN(CCO)CCCCCCCCCC(OCCCCCCC)OCCCCCCC [Compound 4, nonyl 8-[10, 10-diheptoxydecyl(2-hydroxyethyl)amino]octanoate]
pKa [1]: 7.04
% Editing B2M in mouse liver (B2M; Example 54: 0.1 mpk i.v.): 29%
% Editing B2M in mouse liver (B2M; Example 54: 0.3 mpk i.v.): 57%
Editing Mean % Indel (TTR [4]; [6]): 46.7%
Serum TTR (TTR [5]; [6]): 333 µg/mL
response vs control in vivo at 0.1 mg/kg (TTR [5]; Mus musculus, iv, 168 h, Example 61: 0.1 mpk i.v., G282 1:1, read-out: Serum TTR % TSS): 26%

CCCCCCCCCOC(=O)CCCCCCCN(CCO)CCCCCCCC(OCCCCCCCCC)OCCCCCCCCC [Compound 2]
pKa [1]: 6.23
Editing (%) of B2M in mouse liver (B2M): 17.7%
